The series can be described thus: Human HepG2 cell viability assay in 384 well format. It counts as toxicity, cell-based. Also noted: dose 125 nL, time 70.5 hour; concentration not given beside the values. Particulars: HepG2 cells, read-out: Inhibition.

As to `CNc1nc2c(s1)C(=O)CN(C(=O)NCc1ccccc1)C2`, the cytotoxicity at 70.5 h is -9.93%.
Then `CCNc1nc2c(s1)C(=O)CN(C(=O)NCCc1ccccc1)C2`, with -17.7%.
The figure for `COc1ccc(OC)c(C(C(=O)O)N2CCSCC2)c1` (stereo unspecified) is -4.28%; for `CCOc1ccc(-c2ccnc(C)n2)cc1C(=O)O` it is -4.51%; for `Cc1noc(C)c1S(=O)(=O)N1C[C@@H](C(=O)O)[C@H](c2ccccn2)C1` it is -10.9%.
Then `Cc1nccn1CCCn1c(=O)cnc2ccccc21`, with -10.5%; and `CN1CCCCC1C(=O)N1CCN(c2ccccc2C#N)CC1` (stereo unspecified), with -2.64%.
As to `CC(C)c1cc(CN(C)C(=O)CN2CCC(C(N)=O)CC2)no1`, the cytotoxicity at 70.5 h was -14.7%.
As for `CCCn1ncc(C(=O)N2CCN(C3CCCC3)CC2)c1C`, the cytotoxicity at 70.5 h is -3.82%.
`Cc1ccc2[nH]c(CN3CC[C@@H](N4CCN(C)CC4)[C@H](O)C3)c(C)c2c1`: the cytotoxicity at 70.5 h is -6.53%.
Turning to `CC(O)c1cccc(N2CCC3(CCC(=O)N(CC(N)=O)C3)CC2)n1` (stereo unspecified), the cytotoxicity at 70.5 h is -11.2%.
Consider `CNc1cc(C)nc(NC2CCCN(C3Cc4ccccc4C3)C2)n1` (stereo unspecified), for which the cytotoxicity at 70.5 h was found to be 28.6%.
As to `CC(C)Cc1n[nH]c(C2CC(=O)N(CC(C)C)C2)n1` (stereo unspecified), the cytotoxicity at 70.5 h was -5.1%.
With `CC(C)N[C@@H]1CC[C@@H]1NC(=O)c1ccccc1OC(F)(F)C(F)F`, the cytotoxicity at 70.5 h stood at 14.2%.
In the case of `CCn1cc(CN2CCCn3nc(CNS(C)(=O)=O)cc3C2)c(C)n1`, the cytotoxicity at 70.5 h came to 13.3%.
As to `Cc1ccc(C(=O)N2CCN(C)C3(CCC(=O)N(C)CC3)C2)c(F)c1` (stereo unspecified), the cytotoxicity at 70.5 h was -9.61%.
As to `CCCc1cncnc1N1CCC(NCc2ccc(O)cc2)CC1`, the cytotoxicity at 70.5 h was -2.53%.
Turning to `CCn1ccnc1CN(C)c1nc(-c2ccc(Cl)cc2)nc2c1CNC2`, the cytotoxicity at 70.5 h is -9.22%.
Take `Cc1nn(C)cc1-c1ccnc(N2CCN(c3cnccn3)CC2)n1`: the cytotoxicity at 70.5 h was -0.227%.
Turning to `O=C(c1cn2ccsc2n1)N1CCN(CC2CC2)[C@@H]2CS(=O)(=O)C[C@@H]21`, the cytotoxicity at 70.5 h was -10.5%.
As for `O=C(c1cn(CCN2CCCCC2)nn1)N1CCCCO1`, the cytotoxicity at 70.5 h amounted to 11%.
Regarding `O=C1NC2(CCN(C(=O)c3ccc(Cl)cn3)CC2)CC1c1ccccc1` (stereo unspecified), the cytotoxicity at 70.5 h turned out to be 8.76%.
Turning to `CCc1cnc(NCc2nc(CSC)no2)nc1`, the cytotoxicity at 70.5 h came out at 10.1%.
Consider `CCCc1cc(C(=O)N(Cc2cccnc2)C[C@@H]2CCC(=O)N2)no1`, for which the cytotoxicity at 70.5 h is -6.41%.
Consider `Cc1cnc(C)c(N2CCCC(C/C=C/c3ccccc3)(C(=O)O)C2)n1` (stereo unspecified), for which the cytotoxicity at 70.5 h was -7.68%.
As to `CN1CCN(Cc2ccccc2Oc2cncc(C(N)=O)n2)CC1`, the cytotoxicity at 70.5 h is -3.62%.
For the compound `Nc1cc(C(=O)N2CCCC(C(=O)CCc3ccccc3)C2)ccn1` (stereo unspecified), the cytotoxicity at 70.5 h was -3.17%.
On to `CC(C)c1ncc(CN2C[C@@H](CN3CCC(O)CC3)[C@@H](CO)C2)cn1`, for which the cytotoxicity at 70.5 h worked out at 37.8%.
Consider `CN1CCN(c2ccc(C(=O)N3CCCC(c4ncc[nH]4)C3)cc2)CC1` (stereo unspecified), for which the cytotoxicity at 70.5 h was -9.77%.
In the case of `CC1(C)CNC(=O)c2nc(-c3nnn[nH]3)[nH]c2C1`, the cytotoxicity at 70.5 h is -3.01%.
With `O=C(CC1COCCN1)N1CCC2(CCc3ccccc32)CC1` (stereo unspecified), the cytotoxicity at 70.5 h is 8.47%.
For the compound `CCC[C@@H]1CN(S(=O)(=O)c2ccc3[nH]c(=O)[nH]c3c2)C[C@H]1NC(C)=O`, the cytotoxicity at 70.5 h is -1.53%.
Then `Cc1cc(CN(C)C(=O)c2cc(COc3ccccc3)[nH]n2)n[nH]1`, with -3.12%; and `Cc1cccc(C)c1C(=O)N1C[C@@H](CN2CCOCC2)[C@@H](CO)C1`, with -7.08%; and `CCc1ccccc1OC1CN(C(=O)c2ccnc(OC)c2)C1`, with 11.1%.
With `Cc1cc(C[C@@H]2COC[C@@H]2NC(=O)CN2CCCCCC2)on1`, the cytotoxicity at 70.5 h was -10.1%.
Take `CCOCc1nccc(-c2ccc(OCC)c(C(=O)O)c2)n1`: the cytotoxicity at 70.5 h is 2.25%.
Take `CCCn1cnnc1CNC(=O)CC1C(=O)NCCN1CC(C)(C)C` (stereo unspecified): the cytotoxicity at 70.5 h was -12.5%.
Regarding `COc1ccc(Cn2cc(C(=O)N(C)Cc3ccn[nH]3)nn2)cc1`, the cytotoxicity at 70.5 h was -18.5%.
Then `Cc1cc(-c2cccc3c2CCNC3)cnc1-n1cnnc1`, with -5.08%; and `CCc1cc(N2CCC(N[C@@H]3CS(=O)(=O)C[C@H]3O)CC2)nc(N(C)C)n1`, with 0.303%.
For the compound `CCC[C@H]1CN(C(=O)CCn2ccccc2=O)C[C@@H]1NS(C)(=O)=O`, the cytotoxicity at 70.5 h is -16.2%.
With `Fc1cc(Oc2ccc(C(F)(F)F)cn2)cc(F)c1CN1CCCC1`, the cytotoxicity at 70.5 h is -4.12%.
Regarding `CC(C)C1CN(c2cccc(C#N)n2)CCCN1CC1CC1` (stereo unspecified), the cytotoxicity at 70.5 h was -11.5%.
In the case of `Fc1ccccc1-c1noc2c1CN(CCN1CCOCC1)CC2`, the cytotoxicity at 70.5 h came out at 7.36%.
The figure for `CN(C)CCN(C)C1CCCN(C(=O)c2ccc(Cn3ccnc3)o2)C1` (stereo unspecified) is -9.94%.
`Cc1cccc(C(C(=O)N(C)Cc2cc(C)no2)N(C)C)c1` (stereo unspecified): the cytotoxicity at 70.5 h was -7.53%.
For `COCCCC1(CO)CCCN(CCOC)C1` (stereo unspecified), the cytotoxicity at 70.5 h is -4.83%.
For the compound `Cc1cccc(SC2CCN(C(=O)CCNS(C)(=O)=O)CC2)c1`, the cytotoxicity at 70.5 h is -13.1%.
For the compound `Cc1cnc(NCc2cnn(C)c2)nc1-c1cnn(C)c1`, the cytotoxicity at 70.5 h worked out at 13.5%.
In the case of `C[C@@H]1CN(S(=O)(=O)c2ccc(F)cc2F)C[C@]1(C)O`, the cytotoxicity at 70.5 h is -1.56%.
The figure for `NC(=O)COc1ccc(CN2CC[C@@]3(O)CCCC[C@H]3C2)cc1Cl` is -2.71%.
Then `c1cc(C2CCN(Cc3ccc4c(c3)OCO4)CC2)ccn1`, with -2.31%.
The figure for `Cc1nnc(N2CCCC(C(=O)c3cccc(Cl)c3)C2)o1` (stereo unspecified) is -3.19%; for `O=C1OCCN1CC(=O)N1C[C@H]2CC[C@@H]1CN(C(=O)c1cccnc1)C2` it is -2.17%.
Take `CCn1ccnc1C1CCCN(c2nccc3ccccc23)C1` (stereo unspecified): the cytotoxicity at 70.5 h was -8.19%.
With `Cc1nc(C2CCCNC2)cc(N(Cc2nccn2C)C2CC2)n1` (stereo unspecified), the cytotoxicity at 70.5 h came to 7.52%.
On to `CCn1ccnc1CN(C)C(C(=O)O)c1ccc(C(C)(C)C#N)cc1` (stereo unspecified), for which the cytotoxicity at 70.5 h was -4.97%.
The figure for `CCN(CC)c1ncccc1CNC(=O)c1cc2nc(C)cc(C)n2n1` is -0.33%; for `Cc1nccn1CCC1CCCCN1Cc1ccc2c(c1)OCCO2` (stereo unspecified) it is 14.5%; for `O=C(CCc1cc2n(n1)CCCNC2)N1CCN(C2CCCC2)C(=O)C1` it is -7.76%.
Turning to `Cc1ccc(CN2CCNC(=O)C2CC(=O)NCc2n[nH]c(C)n2)cc1` (stereo unspecified), the cytotoxicity at 70.5 h was -3.13%.
With `CCCN(CCC)C(=O)c1cc(CN2CCC(O)CC2)on1`, the cytotoxicity at 70.5 h was -6.98%.
Then `Cc1cc(N[C@H]2CCCN(Cc3ccccc3)C2)n2nc(C)cc2n1`, with 1.66%; and `Cc1cc(C)c(C(=O)N[C@H](C(N)=O)c2ccccc2)c(=O)[nH]1`, with 12.8%.
On to `Cc1noc(C)c1CN1CCCCC1CCc1ccc(O)cc1` (stereo unspecified), for which the cytotoxicity at 70.5 h is -1.36%.
As to `CSc1nc(N)cc(N2C[C@@H]3CC[C@H](C2)N(CC2CC2)C3=O)n1`, the cytotoxicity at 70.5 h turned out to be 3.27%.
The figure for `Cc1ccc(CN2CC[C@@H](NC(=O)c3cccnc3)[C@H](O)C2)o1` is -13.3%.
Regarding `COc1nccnc1N1CCN(Cc2ccc(F)cc2)C(=O)C1`, the cytotoxicity at 70.5 h turned out to be 24.6%.
Take `Cc1cc(-c2nn(C)c(Cl)c2CN2CC[C@@](O)(C3CCC3)[C@H](C)C2)no1`: the cytotoxicity at 70.5 h is 0.567%.
Consider `CC(C)NC(=O)N1CCC(c2nccn2C(C)C)CC1`, for which the cytotoxicity at 70.5 h is -3.22%.
Then `O=C(NC1CCCCC1)N1CCC(N2Cc3ncccc3C2=O)CC1`, with -13.7%.
The figure for `Cc1nccc(N2CC[C@@H]3[C@@H](CCC(=O)N3CCc3ccccc3)C2)n1` is -6.49%.
`Cc1ocnc1C(=O)N1CCCC1c1ccc(C(=O)N2CCSCC2)s1` (stereo unspecified): the cytotoxicity at 70.5 h is -7.81%.
As for `COc1ccc(OCc2cc(C(=O)N3CCSCC3)n[nH]2)c(Cl)c1`, the cytotoxicity at 70.5 h was -5.04%.
Regarding `COc1cc(N2C[C@@H](C)[C@](O)(C3CC3)C2)ncn1`, the cytotoxicity at 70.5 h is 5.18%.
The figure for `COC(=O)c1cc(NC(=O)NCC2CCS(=O)(=O)C2)ccc1Cl` (stereo unspecified) is -0.58%; for `CCc1ccc(CN(Cc2ccco2)C(C)C(C)C)nc1` (stereo unspecified) it is 1.59%; for `COC(=O)[C@H]1C[C@@H](O)CCN1S(=O)(=O)c1cc(Cl)ccc1OC` it is -11.2%.
Consider `COc1cc(F)c(C(=O)NCc2ccon2)c(F)c1`, for which the cytotoxicity at 70.5 h was -3.42%.
As to `O=C(c1cn(-c2ccccc2)nn1)N1CCOCC(O)C1` (stereo unspecified), the cytotoxicity at 70.5 h was 15.7%.
As to `Cc1nc(-c2ccccc2)c(C(=O)N2CCC3(CC(=O)NC3=O)C2)s1` (stereo unspecified), the cytotoxicity at 70.5 h is -6.69%.
Regarding `Cc1ccsc1[C@@H]1CCN(C(=O)CCC(=O)c2ccccc2)C[C@H]1O`, the cytotoxicity at 70.5 h is -9.94%.
Consider `CN(CCc1cnn(C)c1)C(=O)C(c1ccccc1F)N(C)C` (stereo unspecified), for which the cytotoxicity at 70.5 h came to 0.281%.
As to `CN(C)[C@@H]1C[C@@H](CO)N(C(=O)Nc2ccc(SC(F)(F)F)cc2)C1`, the cytotoxicity at 70.5 h is 4.27%.
`CS(=O)(=O)NCC(=O)N[C@H]1CN(c2cnccn2)C[C@@H]1C1CC1`: the cytotoxicity at 70.5 h came out at 9.56%.
Consider `Cc1cc(C(=O)NCc2cccnc2N2CCc3ccccc3C2)[nH]n1`, for which the cytotoxicity at 70.5 h is -3.47%.
Then `CCc1ncc2c(n1)CN(c1nc(C)ccc1C(=O)O)C2`, with -10.8%; and `O=C(c1ccc(=O)[nH]c1)N1C[C@@H]2CC[C@H](C1)N(Cc1ccccc1)C2`, with -8.28%; and `CC(C)[C@H](C)NC1CCN(c2ccc(-c3cscn3)cc2)CC1`, with -14.3%.
Consider `Cc1nc(N(C)CCCc2nccn2C)c2c(C)nn(C)c2n1`, for which the cytotoxicity at 70.5 h was -6.47%.
Turning to `O=C(NCc1cccnc1)C1CN(c2cnc3ccccc3n2)CCN1` (stereo unspecified), the cytotoxicity at 70.5 h stood at 19.1%.
For the compound `CCc1ncc2c(n1)CN(C(=O)CNC(=O)c1ccccc1)C2`, the cytotoxicity at 70.5 h came out at 25.5%.
Then `CCOCC1CCN(C(=O)C(c2cccc(F)c2)N(C)C)CC1` (stereo unspecified), with 27.9%; and `Cc1c(C(C)N)cnn1-c1ccccn1` (stereo unspecified), with -8.01%.
Then `Nc1ccc(-c2ccc(F)cc2Cl)cn1`, with -8.38%.

Source of the values: ChEMBL document CHEMBL3507680, “University of Dundee, Gates Library screen for HepG2 cell viability”.
